Series [1] is described as follows: Prodrug conversion in human H1-HeLa cells assessed as ((2R,3S,4R,5S)-5-(4-aminopyrrolo[2,1-f][1,2,4]triazin-7-yl)-2-cyano-3,4-dihydroxytetrahydrofuran-2-yl)methyl tetrahydrogen triphosphate formation measured per million cells at 0.2 uM measured after 48 hrs by LC-MS/MS analysis. The format is ADME, cell-based.
Series [2] can be described thus: Selectivity index, ratio of CC50 for Normal human bronchial epithelial cells to EC50 for RSV A2 infected in Normal human bronchial epithelial cells. The settings on record: read-out: Ratio CC50/EC50. The format is toxicity.

Molecules are shown by their SMILES.

As to `COC(=O)[C@H](C)N[P@](=O)(OC[C@@]1(C#N)O[C@@H](c2ccc3c(N)ncnn23)[C@H](OC(=O)C(C)C)[C@@H]1OC(=O)C(C)C)Oc1ccccc1`, the amount per cells in series [1] came to 0.84 pmol/10^6 cells. The selectivity ratio in series [2] turned out to be 640.
